# From US20100130597A1, “DNA-PKCS MODULATES ENERGY REGULATION AND BRAIN FUNCTION” (The United State of America, as represented by the …, priority 2007, published 2010)
# How the values were obtained:
# [1] = test system: LKB1; experiment: LKB1 IP kinase assay of muscle of treated mice; format: in vivo; details: mice treated with a low-dose, data not shown
# [2] = target: T1, DNA-PKcs (Homo sapiens, UniProt P78527); experiment: DNA-PKcs activation in MCF7 cells, immunoblot for phosphorylated Ser2056; format: cell-based; details: data not shown
# T1 construct: endogenous in cells; host or cells: MCF7 (ATCC)
# Protocol: MCF7 cells were obtained from the ATCC. MCF7 cells in G0 were treated with varying doses of H2O2 (FIG. 1). The cells were examined while in the G0 phase of their life cycle to mimic the post-mitotic state of cells in vivo. Low passage MCF-7 cells in G0 were exposed to varying concentrations of H2O2 for 60 minutes with or without Euk-134 or ionizing radiation (5 Gy). For Western blot analysis of DNA-PKcs activation and the activation of other signaling pathways in this study, the following antibodies were used: ACC1 (Cell Signaling); p-ACC1 (Upstate); AMP-activated protein kinase (AMPK; Cell Signaling); p-AMPK(T172) (Cell Signaling); DNA-PK (Lab Vision); p53 (Novocastra); p-DNA-PK(S2056) (Abeam); p-p53(S15) (Cell Signaling); γ-H2AX (Upstate); 53BP1 (Novus Biologicals).
# Activation of DNA-PKcs was visualized by immunoblotting cell lysates with antibody specific for phosphorylated Ser2056, which is autophosphorylated during DNA-PKcs activation (Chen et al., J. Biol. Chem. 280: 14709-15 (2005)) (FIG. 1). […] Instead, H2O2 increased DNA-PKcs activation, and such activation was abrogated by the antioxidant Euk-134 (FIG. 1), a potent synthetic superoxide dismutase and catalase mimetic (Chatterjee, Am. J. Nephrol. 24: 165-77 (2004)).
# MCF7 cells were then cultured in 25 mM glucose. Aliquots of the cultured MCF7 cells were treated with ionizing radiation and/or the DNA-PKcs-specific inhibitor NU7026. Treatment with glucose and ionizing radiation increased DNA-PKcs phosphorylation (data not shown). […] The basal activity of DNA-PKcs in MCF-7 cells in 25 mM glucose was detectable even in the absence of ionizing radiation, but this basal activity was suppressed with the DNA-PKcs-specific inhibitor NU7026 (data not shown).
# [3] = test system: AMPK; experiment: AMPK activation in mouse embryonic fibroblasts (wild-type, DNA-PK null, LKB1-null); format: cell-based
# Text: The hypothesis that DNA-PKcs inhibition/deficiency induces activation of the LKB1-AMPK pathway was further tested using DNA-PK^−/− (null) mouse embryonic fibroblasts (MEFs) and LKB1-null MEFs treated with NU7026.
# [4] = Blood-brain barrier penetration inferred from behavioural effects; format: in vivo, mice; details: inferred from decreased anxiety/depression at a low-dose
# Text: For any central nervous system drugs, a major rate-limiting step for uptake into the brain is BBB permeability. […] The BBB is an essential physiological barrier for the maintenance and regulation of brain function. It is comprised of brain microvascular endothelial cells that are connected by tight junctions. This transvascular route to the brain is impenetrable to the majority of drugs. Enhanced BBB permeability is obtained, for example, by increasing the lipid solubility of the water-soluble molecules.
# [5] = test system: Sirt1 and PGC-1α; experiment: Sirt1 and PGC-1α expression in C2C12 myoblasts; format: cell-based
# Protocol: (§1) Increased mitochondrial function boosts energy production and physical endurance. […] Further tests were therefore conducted to ascertain whether DNA-PKcs inhibitor elevates mitochondrial biogenesis and expression of PGC-1α and Sirt, which are important for mitochondrial biogenesis. […] It is important to note that only 2.5 μM of NU7026 was required to induce a similar level of Sirt1 to that induced by 25-50 μM Resveratrol, a well-known, potent Sirt1 activator.
# [6] = test system: C2C12 cells; experiment: Mitochondrial DNA copy number in C2C12 cells; format: cell-based; details: C2C12 cells, 2.5 μM, FIG. 49C
# Protocol: Quantitative Real-Time PCR was used to assess the relative amounts of nuclear DNA and mtDNA, to permit assessment of the ratio of mtDNA to nucleic DNA, which reflects the tissue concentration of mitochondria per cell. Muscle tissues were homogenized and digested with Proteinase K overnight in a lysis buffer for DNA extraction by conventional phenol-chloroform method. Quantitative PCR was performed using the following primers: […]
# as §1, with “activator. In FIG. 49C, mitochondrial DNA copy number increased (>1.8 fold) in C2C12 cells after 2.5 μM NU7026 treatment.” for “activator.”
# [7] = test system: MCF7 cells; experiment: ATP level in MCF7 cells; format: cell-based; details: 1 and 2.5 μM, FIG. 20
# Protocol: The level of ATP and the ADP/ATP ratio in cells were determined using an
# ENLITEN ATP assay kit (Promega) and ApoGlow assay kit (Cambrex), respectively. […] To determine whether the AMPK-inhibitory function of DNA-PKcs is cell autonomous, quiescent MCF7 cells were treated with 1 and 2.5 μM NU7026.
# [8] = Elevated plus maze test; format: in vivo, mice
# Protocol: To evaluate whether SCID mice may also have altered anxiety, fear and depression-like traits, an elevated plus maze test was performed, which is a commonly used test to quantify the level of anxiety- and depression-like traits in rodents (Pellow et al. J. Neurosci. Methods 14: 149-67 (1985)). The elevated plus maze has narrow runways that are located 16 inches above the surface that are either closed or open. The animal is placed in the center of an elevated 4-arm maze in which 2 arms are open and 2 are enclosed. Mice generally avoid the open arms because of their fear of open space and height. The elevated plus-maze is used to determine the rodent's response to a potentially dangerous environment and anxiety-related behavior is measured by the degree to which the rodent avoids the unenclosed arms of the maze. Increase in the number of times the animal enters the open arm and the amount of time spent in the open arms reflect decreased anxiety and depression.
# Elevated plus maze tests, light/dark chamber tests, forced swim tests (FST) and hot plate tests were performed as described earlier.
# [9] = target: ATM (Homo sapiens, UniProt Q13315); details: related kinase, selectivity; cited from earlier work
# [10] = test system: leukemic cells; details: Willmore et al. Blood 103:4659, 2004; cited from earlier work
# Sequence of ATM (Q13315 whole entry, species assumed): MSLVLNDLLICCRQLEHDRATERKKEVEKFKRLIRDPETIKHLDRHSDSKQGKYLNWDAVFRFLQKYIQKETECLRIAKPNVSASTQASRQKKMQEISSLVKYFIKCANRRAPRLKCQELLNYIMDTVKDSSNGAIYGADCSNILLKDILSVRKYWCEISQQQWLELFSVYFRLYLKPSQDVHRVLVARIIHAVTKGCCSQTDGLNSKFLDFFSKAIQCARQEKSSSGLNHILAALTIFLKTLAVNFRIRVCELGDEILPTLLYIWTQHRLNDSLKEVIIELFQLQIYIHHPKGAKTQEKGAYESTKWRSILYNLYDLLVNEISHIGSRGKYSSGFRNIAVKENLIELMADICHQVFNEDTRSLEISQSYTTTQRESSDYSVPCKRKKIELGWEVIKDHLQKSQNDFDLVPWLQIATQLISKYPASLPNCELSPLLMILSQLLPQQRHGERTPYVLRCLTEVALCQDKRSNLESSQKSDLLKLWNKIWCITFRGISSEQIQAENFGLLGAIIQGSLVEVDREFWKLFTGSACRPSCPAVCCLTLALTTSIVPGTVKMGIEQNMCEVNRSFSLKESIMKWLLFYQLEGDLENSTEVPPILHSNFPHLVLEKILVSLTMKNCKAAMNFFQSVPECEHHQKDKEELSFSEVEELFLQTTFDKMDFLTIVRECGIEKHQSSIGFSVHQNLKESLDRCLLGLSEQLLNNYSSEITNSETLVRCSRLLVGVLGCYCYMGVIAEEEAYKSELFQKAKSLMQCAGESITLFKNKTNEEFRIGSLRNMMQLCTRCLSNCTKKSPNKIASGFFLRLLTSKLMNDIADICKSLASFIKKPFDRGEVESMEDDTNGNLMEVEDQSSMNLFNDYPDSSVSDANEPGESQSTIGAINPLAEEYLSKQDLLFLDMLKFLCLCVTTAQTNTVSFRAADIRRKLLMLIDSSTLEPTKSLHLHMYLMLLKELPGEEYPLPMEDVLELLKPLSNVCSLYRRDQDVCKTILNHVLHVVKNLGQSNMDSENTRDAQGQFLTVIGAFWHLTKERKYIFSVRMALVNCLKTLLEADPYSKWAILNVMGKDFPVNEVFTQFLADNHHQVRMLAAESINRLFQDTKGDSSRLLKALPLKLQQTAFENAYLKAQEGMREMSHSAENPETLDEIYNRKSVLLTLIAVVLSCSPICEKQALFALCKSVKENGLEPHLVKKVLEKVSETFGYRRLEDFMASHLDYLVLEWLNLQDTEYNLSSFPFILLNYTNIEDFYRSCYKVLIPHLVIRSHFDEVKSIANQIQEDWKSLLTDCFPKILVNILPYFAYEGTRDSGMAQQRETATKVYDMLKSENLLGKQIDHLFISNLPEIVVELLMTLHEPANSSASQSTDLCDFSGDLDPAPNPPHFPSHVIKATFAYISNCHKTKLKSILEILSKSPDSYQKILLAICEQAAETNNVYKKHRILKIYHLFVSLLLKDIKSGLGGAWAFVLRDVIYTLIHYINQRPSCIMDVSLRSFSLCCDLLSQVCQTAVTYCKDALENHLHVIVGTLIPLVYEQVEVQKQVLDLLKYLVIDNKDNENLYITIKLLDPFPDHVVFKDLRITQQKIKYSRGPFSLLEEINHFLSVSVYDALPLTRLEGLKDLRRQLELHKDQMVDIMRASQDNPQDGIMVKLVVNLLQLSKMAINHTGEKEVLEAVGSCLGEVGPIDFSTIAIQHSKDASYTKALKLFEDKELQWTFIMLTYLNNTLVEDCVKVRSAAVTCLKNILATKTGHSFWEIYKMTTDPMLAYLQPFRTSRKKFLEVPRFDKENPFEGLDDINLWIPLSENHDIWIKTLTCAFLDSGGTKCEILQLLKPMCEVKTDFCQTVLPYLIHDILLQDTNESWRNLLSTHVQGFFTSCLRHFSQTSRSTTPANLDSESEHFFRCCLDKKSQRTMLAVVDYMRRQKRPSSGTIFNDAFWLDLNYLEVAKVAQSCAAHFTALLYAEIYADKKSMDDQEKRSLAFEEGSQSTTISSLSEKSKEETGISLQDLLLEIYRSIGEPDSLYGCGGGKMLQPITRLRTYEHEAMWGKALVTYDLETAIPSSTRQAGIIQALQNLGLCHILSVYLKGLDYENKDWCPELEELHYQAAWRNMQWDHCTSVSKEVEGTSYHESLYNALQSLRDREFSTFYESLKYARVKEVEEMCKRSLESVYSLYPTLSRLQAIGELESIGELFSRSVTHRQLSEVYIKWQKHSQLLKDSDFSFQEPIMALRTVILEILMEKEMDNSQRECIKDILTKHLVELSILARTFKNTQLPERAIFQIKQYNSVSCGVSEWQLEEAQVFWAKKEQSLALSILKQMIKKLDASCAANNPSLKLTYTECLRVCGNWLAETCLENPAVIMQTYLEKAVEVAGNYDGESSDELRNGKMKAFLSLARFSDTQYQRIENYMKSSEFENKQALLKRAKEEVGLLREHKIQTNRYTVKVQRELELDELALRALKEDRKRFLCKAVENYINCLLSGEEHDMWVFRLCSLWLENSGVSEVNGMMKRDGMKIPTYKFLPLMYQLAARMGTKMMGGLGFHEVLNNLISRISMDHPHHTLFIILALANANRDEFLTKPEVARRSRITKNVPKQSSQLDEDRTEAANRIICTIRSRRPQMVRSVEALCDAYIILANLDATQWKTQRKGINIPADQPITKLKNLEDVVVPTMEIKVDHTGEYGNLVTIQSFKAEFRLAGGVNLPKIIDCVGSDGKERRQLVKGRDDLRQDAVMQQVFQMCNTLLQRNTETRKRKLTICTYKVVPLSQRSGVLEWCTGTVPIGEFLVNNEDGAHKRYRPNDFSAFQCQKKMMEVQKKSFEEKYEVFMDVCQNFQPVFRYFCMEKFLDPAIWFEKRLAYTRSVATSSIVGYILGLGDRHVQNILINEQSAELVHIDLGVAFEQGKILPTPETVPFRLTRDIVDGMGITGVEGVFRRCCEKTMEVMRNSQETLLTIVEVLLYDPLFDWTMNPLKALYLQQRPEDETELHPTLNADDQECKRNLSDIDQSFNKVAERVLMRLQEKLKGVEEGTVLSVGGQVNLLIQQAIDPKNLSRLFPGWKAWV
structure (smiles),measurement,setting,value
"O=c1cc(N2CCOCC2)oc2c1ccc1ccccc12 [NU7026, 2-(morpholin-4-yl)-benzo[h]chomen-4-one]",LKB1 activity in muscles,[1],strong induction of LKB1 activity
same,induction of DNA-PKcs activation by ionizing radiation,[2]; MCF7 cells in 25 mM glucose,able to depress the induction of DNA-PKcs activation
same,basal activity of DNA-PKcs,"[2]; MCF-7 cells in 25 mM glucose, no ionizing radiation",suppressed
same,AMPK activation,"[3]; DNA-PK−/− MEFs, FIG. 52A",significantly enhanced
same,AMPK activation,"[3]; LKB1-null MEFs, FIG. 52B",not in LKB1-null MEFs
same,AMPK activation,"[3]; wild-type MEFs, FIG. 52",activated
same,blood-brain barrier (BBB) penetration,[4],can penetrate the blood-brain barrier (BBB) efficiently
same,concentration required to induce a similar level of Sirt1,[5],2.5 µM
same,PGC-1α and Sirt1 expression,[5]; FIG. 49,dramatically elevated
same,mitochondrial DNA copy number increase,[6],> 1.8 fold
same,ATP levels,[7],without significantly affecting ATP levels
same,levels of anxiety/depression,"[8]; elevated plus maze and light/dark chamber tests, FIGS. 47 and 48",dramatically lower levels of anxiety/depression
same,time in closed arm of the elevated plus maze,[8]; treated vs untreated mice,less time in a closed arm
same,time in open arm of the elevated plus maze,[8]; treated vs untreated mice,more time in the open arm
same,IC50,[9],> 100 µM
same,sensitization to topoisomerase II inhibitors,[10],sensitize leukemic cells to topoisomerase II inhibitors
